Consider two compounds from patent US5244661A, “Process for producing a polyene antibiotic” (Ajinomoto Company, Inc., priority 1989, dated 1993).

SMILES strings stand for the structures. Converted amounts (≈) assume the structure as drawn.

Test [1] deals with Candida albicans ATCC 10231. Put plainly: minimum growth inhibitory concentration (MIC) against Candida albicans ATCC 10231. Type of test: cell-based.
The subject of test [2] is Saccharomyces ubran ATCC 9080. Put plainly: minimum growth inhibitory concentration (MIC) against Saccharomyces ubran ATCC 9080. The test is classed as cell-based. The conditions noted are these: Table 3.

By MIC is commonly meant the lowest concentration found to suppress growth. A lower MIC goes with greater potency. Consider `CC1/C=C/C=C/C=C/C=C/C=C/C=C/C=C/C(O[C@H]2O[C@@H](C)[C@H](O)[C@@H](N)[C@H]2O)CC2OC(O)(CC(O)CC(O)CC(O)CC(O)CC(=O)CC(O)CC(=O)OC1C(C)CCC(O)CC(=O)c1ccc(N)cc1)CC(O)C2C(=O)O` (stereo partly drawn) [Partricin B, partricin B], for which the MIC in test [1] (Table 3) and in test [2] was 0.04 µg/mL (≈ 0.0359 µM) each time.
With `COC(=O)C1C(O)CC2(O)CC(O)CC(O)CC(O)CC(O)CC(=O)CC(O)CC(=O)OC(C(C)CCC(O)CC(=O)c3ccc(N)cc3)C(C)/C=C/C=C/C=C/C=C/C=C/C=C/C=C/C(O[C@H]3O[C@@H](C)[C@H](O)[C@@H](N)[C@H]3O)CC1O2` (stereo partly drawn) [partricin B methyl ester], the “minimum growth inhibitory concentration (MIC)” value in test [1] (Example 7) stood at 0.52 µg/mL.
